Source: US20180369166A1, “GARCINOL COMPOSITIONS FOR THERAPEUTIC MANAGEMENT OF ENDOPLASMIC RETICULUM STRESS” (priority 2017, published 2018)

How the values were obtained:
[1] = system: Human Liver cell line (HepG2); assay: Thapsigargin induced protein aggregation in human liver cells (thioflavin staining, flow cytometry); assay type: cell-based; conditions: 10 μg/ml, 1 μM Thapsigargin, FIGS. 7a and 7b
Method: (§1) HepG2—human liver cell line, primary mouse hepatocytes. Min6—Mouse pancreatic beta cell line, 3T3 L1—mouse preadipocytes wee used for the experiments. Cells were maintained in DMEM containing 25 mM glucose with 10% heat-inactivated fetal calf serum with antibiotics at 37° C. and 5% CO2. When the cells were 70-80% confluent, they were trypsinized, washed and seeded in 96 well plates at a density of 5×10^3 cells per well. Stress was induced by Thapsigargin(1 uM) for 4 hours, glucose (50 and 100 mM) and alcohol (1000 mM) or paracetamol (4 mM) for 72 hours. Garcinol was added along with stressor as prophylactic treatment. As a therapeutic treatment, cells were exposed to stress agent 24 hours following which Garcinol was added to the cells. Protection was assessed by SRB assay after 72 hours of treatment
IRE1α phosophorylation levels can be assessed by measuring spliced. XBP-1 product by RT PCR. PERK activation is measured by its phosphorylation levels or by measuring the ATF4 mRNA levels. Activation of ATF4 leads to increased transcription of a network of genes, including those encoding ER chaperones, such as BiP/GRP78.
Effect of Garcinol on Thapsigargin induced ER stress in human liver cells was also evaluated. […] Treated and untreated cells were analysed by Flow cytometry and RT PCR.

HepG2 Cells = assay: Alcohol induced toxicity in HepG2 cells (SRB assay); assay type: cell-based, human; conditions: 10 μg/ml; 1000 mM Ethanol for 72 hours; FIG. 6
Method: as §1
For evaluating alcohol induced toxicity, HepG2 Cells were exposed to 1000 mM of Ethanol for 72 hours in the presence of different concentrations of Garcinol and protection was assessed by SRB assay. Garcinol conferred hepatoprotection against alcohol induced toxicity by 47% at concentration of 10 μg/ml (FIG. 6).

[2] = system: primary mouse hepatocytes; assay: Thapsigargin induced protein aggregation in primary mouse hepatocytes (thioflavin staining); assay type: cell-based; conditions: 10 μg/ml; 1 μM Thapsigargin; FIG. 7c

- reduction in protein aggregation in primary mouse hepatocytes [2]: 70.4%
Structure (SMILES): C=C(C)[C@@H](CC=C(C)C)C[C@@]12C[C@@H](CC=C(C)C)C(C)(C)[C@@](CC=C(C)C)(C(=O)C(C(=O)c3ccc(O)c(O)c3)=C1O)C2=O [Garcinol]
- reduction in protein aggregation in human liver cells [1]: 44.4%
- hepatoprotection against alcohol induced toxicity (HepG2 Cells): 47%
